The source made the active and inactive calls. The rule behind the calls is not given here.
What was measured:
[1] = biological target: T1, Histone deacetylase 8 (Homo sapiens, UniProt Q9BY41); experiment: Inhibition of recombinant human HDAC8 using Boc-Lys(Ac)-AMC as substrate incubated for 60 mins by fluorimetric assay
T1 sequence (Q9BY41 whole entry): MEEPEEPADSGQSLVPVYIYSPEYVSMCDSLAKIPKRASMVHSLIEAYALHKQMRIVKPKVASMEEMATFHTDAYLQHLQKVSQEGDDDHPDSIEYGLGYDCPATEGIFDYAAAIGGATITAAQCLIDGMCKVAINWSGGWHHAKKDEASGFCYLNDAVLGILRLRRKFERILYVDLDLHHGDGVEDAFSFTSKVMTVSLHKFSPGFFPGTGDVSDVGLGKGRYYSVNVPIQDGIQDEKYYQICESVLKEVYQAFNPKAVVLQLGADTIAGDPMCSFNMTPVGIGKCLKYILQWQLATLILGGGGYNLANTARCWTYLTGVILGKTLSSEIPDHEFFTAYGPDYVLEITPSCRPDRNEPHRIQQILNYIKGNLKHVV

[2] = biological target: Histone deacetylase 1 (Homo sapiens, UniProt Q13547); experiment: Inhibition of recombinant human HDAC1 using Boc-Lys(Ac)-AMC as substrate incubated for 60 mins by fluorimetric assay
Histone deacetylase 1, sequence (Q13547 whole entry): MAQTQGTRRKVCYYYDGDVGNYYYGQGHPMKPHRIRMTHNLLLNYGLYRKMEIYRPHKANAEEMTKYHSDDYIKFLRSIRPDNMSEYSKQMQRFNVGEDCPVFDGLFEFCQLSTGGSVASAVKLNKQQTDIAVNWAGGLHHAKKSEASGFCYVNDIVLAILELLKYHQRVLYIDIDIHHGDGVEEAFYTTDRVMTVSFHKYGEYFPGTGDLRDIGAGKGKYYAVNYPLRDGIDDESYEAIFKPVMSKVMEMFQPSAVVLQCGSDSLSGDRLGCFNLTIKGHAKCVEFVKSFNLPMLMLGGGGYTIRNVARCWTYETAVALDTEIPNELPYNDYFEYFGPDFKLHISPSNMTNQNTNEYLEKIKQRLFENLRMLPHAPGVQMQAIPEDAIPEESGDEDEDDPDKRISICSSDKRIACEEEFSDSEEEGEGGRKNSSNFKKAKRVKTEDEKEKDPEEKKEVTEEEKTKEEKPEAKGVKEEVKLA

[3] = system: K562/A02; experiment: Antiproliferative activity against human K562/A02 cells overexpressing P-gp by MTT assay; assay type: functional, cell-based
[4] = system: K562/A02; experiment: Induction of apoptosis in human K562/A02 cells assessed as necrotic cells at 3 uM incubated for 48 hrs by annexin V and propidium iodide staining based flow cytometry (reference value: 4.81 %); assay type: functional
[5] = system: K562/A02; experiment: Induction of apoptosis in human K562/A02 cells assessed as increase in cleaved caspase 3 expression incubated for 48 hrs by Western blot analysis; assay type: functional, cell-based; settings: dose microM 1-3, time 48.0 hrs
[6] = system: K562/A02; experiment: Effect on P-gp expression in human K562/A02 cells overexpressing P-gp; assay type: functional, cell-based
[7] = system: K562/A02; experiment: Cytotoxicity against human K562/A02 cells at 3 uM incubated for 24 hrs in presence of ROS scavenger, NAC by MTT assay; assay type: functional, cell-based
[8] = system: K562/A02; experiment: Induction of apoptosis in human K562/A02 cells assessed as late apoptotic cells at 1 uM incubated for 48 hrs by annexin V and propidium iodide staining based flow cytometry (reference value: 0.83 %); assay type: functional
[9] = Resistance index, ratio of IC50 for human K562/A02 cells to IC50 for human K562 cells; assay type: functional; parameters: reference not given here
[10] = system: K562/A02; experiment: Induction of apoptosis in human K562/A02 cells assessed as early apoptotic cells at 1 uM incubated for 48 hrs by annexin V and propidium iodide staining based flow cytometry (reference value: 1.42 %); assay type: functional
[11] = system: K562; experiment: Induction of ROS generation in human K562 cells at 1 to 3 uM by DCFHA-DA based assay; assay type: functional, cell-based; settings: dose microM 1-3
[12] = system: K562/A02; experiment: Induction of apoptosis in human K562/A02 cells assessed as necrotic cells at 1 uM incubated for 48 hrs by annexin V and propidium iodide staining based flow cytometry (reference value: 4.81 %); assay type: functional
[13] = system: K562/A02; experiment: Up regulation of acetylated histone H3 expression level in human K562/A02 cells at 1 to 3 uM measured after 48 hrs by Western blot analysis; assay type: functional, cell-based; settings: dose microM 1-3, time 48.0 hrs
[14] = system: K562/A02; experiment: Effect on P-gp activity in human K562/A02 cells; assay type: cell-based; settings: filed as modulator
[15] = system: K562/A02; experiment: Induction of apoptosis in human K562/A02 cells assessed as increase in cleaved PARP expression incubated for 48 hrs by Western blot analysis; assay type: functional, cell-based; settings: dose microM 1-3, time 48.0 hrs
[16] = system: K562/A02; experiment: Induction of ROS generation in human K562/A02 cells at 3 uM in presence of ROS scavenger, NAC by DCFHA-DA based assay; assay type: functional, cell-based
[17] = system: K562; experiment: Antiproliferative activity against human K562 cells by MTT assay; assay type: functional, cell-based
[18] = system: K562/A02; experiment: Induction of apoptosis in human K562/A02 cells assessed as viable cells at 1 uM incubated for 48 hrs by annexin V and propidium iodide staining based flow cytometry (reference value: 92.94 %); assay type: functional; settings: read-out: Activity
[19] = system: K562/A02; experiment: Up regulation of acetylated histone H4 expression level in human K562/A02 cells at 1 to 3 uM measured after 48 hrs by Western blot analysis; assay type: functional, cell-based; settings: dose microM 1-3, time 48.0 hrs
[20] = system: K562/A02; experiment: Induction of apoptosis in human K562/A02 cells assessed as viable cells at 3 uM incubated for 48 hrs by annexin V and propidium iodide staining based flow cytometry (reference value: 92.94 %); assay type: functional; settings: read-out: Activity
[21] = system: K562/A02; experiment: Induction of apoptosis in human K562/A02 cells assessed as decrease in Bcl2 expression incubated for 48 hrs by Western blot analysis; assay type: functional, cell-based; settings: dose microM 1-3, time 48.0 hrs
[22] = biological target: T2, Protein deacetylase HDAC6 (Homo sapiens, UniProt Q9UBN7); experiment: Inhibition of recombinant human HDAC6 using Boc-Lys(Ac)-AMC as substrate incubated for 60 mins by fluorimetric assay
T2 sequence (Q9UBN7 whole entry): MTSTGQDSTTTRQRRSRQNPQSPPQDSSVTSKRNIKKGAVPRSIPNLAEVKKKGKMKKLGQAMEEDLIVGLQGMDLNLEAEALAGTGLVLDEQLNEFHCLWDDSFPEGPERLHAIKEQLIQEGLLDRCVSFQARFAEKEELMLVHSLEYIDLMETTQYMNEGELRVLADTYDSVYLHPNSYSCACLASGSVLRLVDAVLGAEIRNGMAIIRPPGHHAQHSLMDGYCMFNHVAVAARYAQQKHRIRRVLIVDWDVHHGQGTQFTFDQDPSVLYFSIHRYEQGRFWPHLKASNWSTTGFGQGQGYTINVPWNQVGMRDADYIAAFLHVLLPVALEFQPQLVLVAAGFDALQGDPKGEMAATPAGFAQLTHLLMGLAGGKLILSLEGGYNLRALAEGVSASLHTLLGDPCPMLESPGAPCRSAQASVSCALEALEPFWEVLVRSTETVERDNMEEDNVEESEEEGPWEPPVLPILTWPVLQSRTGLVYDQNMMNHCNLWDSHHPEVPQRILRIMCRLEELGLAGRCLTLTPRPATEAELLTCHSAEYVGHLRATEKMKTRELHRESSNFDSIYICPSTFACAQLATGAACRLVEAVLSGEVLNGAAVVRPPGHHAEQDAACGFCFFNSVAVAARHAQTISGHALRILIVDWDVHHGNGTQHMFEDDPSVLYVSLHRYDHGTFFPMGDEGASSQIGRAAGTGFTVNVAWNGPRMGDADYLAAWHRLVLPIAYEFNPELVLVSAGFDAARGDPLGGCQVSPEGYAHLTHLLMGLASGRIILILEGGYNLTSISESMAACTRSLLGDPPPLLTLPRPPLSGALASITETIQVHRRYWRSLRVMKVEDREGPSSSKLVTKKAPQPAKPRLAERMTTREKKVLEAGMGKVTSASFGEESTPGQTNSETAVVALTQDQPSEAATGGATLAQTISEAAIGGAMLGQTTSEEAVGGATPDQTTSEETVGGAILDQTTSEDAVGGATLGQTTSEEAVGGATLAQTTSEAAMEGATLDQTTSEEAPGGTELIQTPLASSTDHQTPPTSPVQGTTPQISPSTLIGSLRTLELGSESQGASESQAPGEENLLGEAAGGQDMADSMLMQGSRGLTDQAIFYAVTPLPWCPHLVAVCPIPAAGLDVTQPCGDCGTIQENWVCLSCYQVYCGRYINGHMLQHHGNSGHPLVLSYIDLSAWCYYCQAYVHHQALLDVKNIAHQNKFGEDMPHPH

[23] = system: K562/A02; experiment: Induction of ROS generation in human K562/A02 cells by DCFHA-DA based assay; assay type: functional, cell-based; settings: dose microM 1-3
[24] = system: K562/A02; experiment: Induction of apoptosis in human K562/A02 cells assessed as early apoptotic cells at 3 uM incubated for 48 hrs by annexin V and propidium iodide staining based flow cytometry (reference value: 1.42 %); assay type: functional
[25] = system: K562/A02; experiment: Induction of apoptosis in human K562/A02 cells assessed as late apoptotic cells at 3 uM incubated for 48 hrs by annexin V and propidium iodide staining based flow cytometry (reference value: 0.83 %); assay type: functional
[26] = system: K562/A02; experiment: Induction of apoptosis in human K562/A02 cells assessed as increase in Bax expression incubated for 48 hrs by Western blot analysis; assay type: functional, cell-based; settings: dose microM 1-3, time 48.0 hrs

SMILES: C/C(=N\NC(=S)NCCCCCC(=O)NO)c1ccc(Br)cc1
- IC50 [1]: > 5000 nM
- IC50 [2]: 38.6 nM
- IC50 [3]: 440 nM
- Activity [4]: 5.18%
- Activity [5]: Dose-dependent effect
- Activity [6]: Active
- Activity [7]: inactive
- Activity [8]: 52%
- Ratio IC50 [9]: 0.46
- Activity [10]: 16.35%
- Activity [11]: inactive
- Activity [12]: 4.4%
- Activity [13]: Active
- Activity [14]: Active
- Activity [15]: Dose-dependent effect
- Activity [16]: inactive
- IC50 [17]: 960 nM
- viability at 1 µM [18]: 27.2%
- Activity [19]: Active
- viability at 3 µM [20]: 18.9%
- Activity [21]: Dose-dependent effect
- IC50 [22]: 34.6 nM
- Activity [23]: Dose-dependent effect
- Activity [24]: 22.28%
- Activity [25]: 53.69%
- Activity [26]: Dose-dependent effect

— ChEMBL document CHEMBL4699612, “Discovery of thiosemicarbazone-containing compounds with potent anti-proliferation activity against drug-resistant K562/A02 cells” (Bioorg Med Chem Lett, 2020)
